Assay results taken from ChEMBL document CHEMBL6127052, “Discovery of membrane-targeting amphiphilic honokiol derivatives containing an oxazolethione moiety to combat methicillin-resistant Staphylococcus aureus (MRSA) infections” (Eur J Med Chem, 2024).
Active and inactive are the calls of the source. The calls are words filed in the database; no cut-off is given here.

What was measured:
[1] = Toxicity in sepsis BALB/c mouse model infected with methicillin-resistant Staphylococcus aureus clinical isolate M12 assessed as survival rate at 12 mg/kg, ip administered consecutively at 12 hr-interval for 7 days measured after 24 hrs post-last dose; type: organism-based; conditions: in vivo, 192 h, time 8 day
[2] = Toxicity in KM mouse infected with methicillin-resistant Staphylococcus aureus clinical isolate M12 assessed as damage in heart at 5 mg/kg, sc measured after 24 hrs by H and E staining based analysis; type: organism-based; conditions: in vivo
Staphylococcus aureus [3] = experiment: (§1) Antibacterial activity against methicillin-resistant Staphylococcus aureus clinical isolate M12 infected in sepsis BALB/c mouse model assessed as decrease in necrosis in renal tubular epithelial cells at 12 mg/kg, ip administered consecutively at 12 hr-interval for 24 hrs measured after 24 hrs post-last dose by H and E staining based analysis; type: functional, organism-based; conditions: time 48.0 hrs
Staphylococcus aureus [4] = experiment: Antibacterial activity against methicillin-resistant Staphylococcus aureus clinical isolate M12 infected in KM mouse assessed as decrease in erythematous pustules in intradermal tissues at 5 mg/kg, sc measured after 24 hrs; type: functional, organism-based
Staphylococcus aureus [5] = experiment: as §1, with “pathological change” for “necrosis”, “white medulla of spleen” for “renal tubular epithelial cells”; type: functional, organism-based; conditions: time 48.0 hrs
Staphylococcus aureus [6] = experiment: Antibacterial activity against methicillin-resistant Staphylococcus aureus clinical isolate M12 infected in KM mouse assessed as reduction in IL-6 level at infection site at 5 mg/kg, sc measured after 24 hrs by ELISA; type: functional
Staphylococcus aureus [7] = experiment: Antibacterial activity against methicillin-resistant Staphylococcus aureus clinical isolate M12 infected in KM mouse assessed as decrease in bacterial survival rate at 5 mg/kg, sc measured after 24 hrs by drop-plate counting method relative to control; type: functional
Staphylococcus aureus [8] = experiment: Antibacterial activity against methicillin-resistant Staphylococcus aureus clinical isolate M12 infected in KM mouse assessed as decrease in erythematous pustules at infected skin on back of animal at 5 mg/kg, sc measured after 24 hrs; type: functional, organism-based
[9] = Toxicity in KM mouse infected with methicillin-resistant Staphylococcus aureus clinical isolate M12 assessed as damage in liver at 5 mg/kg, sc measured after 24 hrs by H and E staining based analysis; type: organism-based; conditions: in vivo
Staphylococcus aureus [10] = experiment: as §1, with “hepatocytes” for “renal tubular epithelial cells”; type: functional, organism-based; conditions: time 48.0 hrs
[11] = Toxicity in KM mouse infected with methicillin-resistant Staphylococcus aureus clinical isolate M12 assessed as damage in lung at 5 mg/kg, sc measured after 24 hrs by H and E staining based analysis; type: organism-based; conditions: in vivo
Staphylococcus aureus [12] = experiment: as §1, with “degeneration of hepatocytes” for “necrosis in renal tubular epithelial cells”; type: functional, organism-based; conditions: time 48.0 hrs
[13] = Toxicity in KM mouse infected with methicillin-resistant Staphylococcus aureus clinical isolate M12 assessed as histopathological abnormality in spleen at 5 mg/kg, sc measured after 24 hrs by H and E staining based analysis; type: organism-based; conditions: in vivo
Staphylococcus aureus [14] = experiment: Antibacterial activity against methicillin-resistant Staphylococcus aureus clinical isolate M12 infected in sepsis BALB/c mouse model assessed as decrease in bacterial load in spleen at 12 mg/kg, ip administered consecutively at 12 hr-interval for 24 hrs measured after 24 hrs post-last dose; type: functional; conditions: time 48 hrs
Staphylococcus aureus [15] = experiment: as §1, with “degeneration of” for “necrosis in”; type: functional, organism-based; conditions: time 48.0 hrs
[16] = Toxicity in KM mouse infected with methicillin-resistant Staphylococcus aureus clinical isolate M12 assessed as histopathological abnormality in heart at 5 mg/kg, sc measured after 24 hrs by H and E staining based analysis; type: organism-based; conditions: in vivo
Staphylococcus aureus [17] = experiment: Antibacterial activity against methicillin-resistant Staphylococcus aureus clinical isolate M12 infected in sepsis BALB/c mouse model assessed as decrease in bacterial load in kidney at 12 mg/kg, ip administered consecutively at 12 hr-interval for 24 hrs measured after 24 hrs post-last dose; type: functional; conditions: time 48 hrs
[18] = Toxicity in KM mouse infected with methicillin-resistant Staphylococcus aureus clinical isolate M12 assessed as histopathological abnormality in kidney at 5 mg/kg, sc measured after 24 hrs by H and E staining based analysis; type: organism-based; conditions: in vivo
[19] = Toxicity in KM mouse infected with methicillin-resistant Staphylococcus aureus clinical isolate M12 assessed as histopathological abnormality in liver at 5 mg/kg, sc measured after 24 hrs by H and E staining based analysis; type: organism-based; conditions: in vivo
[20] = Toxicity in KM mouse infected with methicillin-resistant Staphylococcus aureus clinical isolate M12 assessed as damage in kidney at 5 mg/kg, sc measured after 24 hrs by H and E staining based analysis; type: organism-based; conditions: in vivo
[21] = Toxicity in KM mouse infected with methicillin-resistant Staphylococcus aureus clinical isolate M12 assessed as histopathological abnormality in lung at 5 mg/kg, sc measured after 24 hrs by H and E staining based analysis; type: organism-based; conditions: in vivo
[22] = Toxicity in KM mouse infected with methicillin-resistant Staphylococcus aureus clinical isolate M12 assessed as damage in spleen at 5 mg/kg, sc measured after 24 hrs by H and E staining based analysis; type: organism-based; conditions: in vivo
Staphylococcus aureus [23] = experiment: Antibacterial activity against methicillin-resistant Staphylococcus aureus clinical isolate M12 infected in sepsis BALB/c mouse model assessed as decrease in bacterial load in liver at 12 mg/kg, ip administered consecutively at 12 hr-interval for 24 hrs measured after 24 hrs post-last dose; type: functional; conditions: time 48 hrs
Staphylococcus aureus [24] = experiment: Antibacterial activity against methicillin-resistant Staphylococcus aureus clinical isolate M12 infected in KM mouse assessed as reduction in TNF-alpha level at infection site at 5 mg/kg, sc measured after 24 hrs by ELISA; type: functional
Staphylococcus aureus [25] = experiment: as §1, with “pathological change” for “necrosis”, “red medulla of spleen” for “renal tubular epithelial cells”; type: functional, organism-based; conditions: time 48.0 hrs
Staphylococcus aureus [26] = experiment: Antibacterial activity against methicillin-resistant Staphylococcus aureus clinical isolate M12 infected in KM mouse assessed as decrease in bacterial load in skin tissues at 5 mg/kg, sc measured after 24 hrs by drop-plate counting method (reference value: 6.7); type: functional

## CN[C@H](CC(C)C)C(=O)N[C@H]1C(=O)N[C@@H](CC(N)=O)C(=O)N[C@H]2C(=O)N[C@H]3C(=O)N[C@H](C(=O)N[C@H](C(=O)O)c4cc(O)cc(O)c4-c4cc3ccc4O)[C@H](O)c3ccc(c(Cl)c3)Oc3cc2cc(c3O[C@@H]2O[C@H](CO)[C@@H](O)[C@H](O)[C@H]2O[C@H]2C[C@](C)(N)[C@H](O)[C@H](C)O2)Oc2ccc(cc2Cl)[C@H]1O [VANCOMYCIN]
[1]
  Survival: 50%
[2]
  Activity: Non-Toxic
Staphylococcus aureus [3]
  Activity: Active
Staphylococcus aureus [4]
  Activity: inactive
Staphylococcus aureus [5]
  Activity: Active
Staphylococcus aureus [6]
  Activity: 56.5 pg/mL
Staphylococcus aureus [7]
  Activity: 93.33%
Staphylococcus aureus [8]
  Activity: inactive
[9]
  Activity: Non-Toxic
Staphylococcus aureus [10]
  Activity: Active
[11]
  Activity: Non-Toxic
Staphylococcus aureus [12]
  Activity: Active
[13]
  Activity: Non-Toxic
Staphylococcus aureus [14]
  Activity: 1.57 log10CFU/g
Staphylococcus aureus [15]
  Activity: Active
[16]
  Activity: Non-Toxic
Staphylococcus aureus [17]
  Activity: 1.48 log10CFU/g
[18]
  Activity: Non-Toxic
[19]
  Activity: Non-Toxic
[20]
  Activity: Non-Toxic
[21]
  Activity: Non-Toxic
[22]
  Activity: Non-Toxic
Staphylococcus aureus [23]
  Activity: 1.62 log10CFU/g
Staphylococcus aureus [24]
  Activity: 96.3 pg/mL
Staphylococcus aureus [25]
  Activity: Active
Staphylococcus aureus [26]
  Activity: 1.4 log10CFU/g
